The source made the active and inactive calls. No cut-off for these calls is given here.
Tests used:
[1] = target: 5-hydroxytryptamine receptor 2A (Rattus norvegicus, UniProt P14842); assay: Displacement of [3H]ketanserin from rat 5HT2A receptor
[2] = target: T1, D(4) dopamine receptor (Homo sapiens) (UniProt P21917); assay: Displacement of [3H]nemonapride from human cloned dopamine D4.2 receptor at 1 uM
T1 sequence (whole entry): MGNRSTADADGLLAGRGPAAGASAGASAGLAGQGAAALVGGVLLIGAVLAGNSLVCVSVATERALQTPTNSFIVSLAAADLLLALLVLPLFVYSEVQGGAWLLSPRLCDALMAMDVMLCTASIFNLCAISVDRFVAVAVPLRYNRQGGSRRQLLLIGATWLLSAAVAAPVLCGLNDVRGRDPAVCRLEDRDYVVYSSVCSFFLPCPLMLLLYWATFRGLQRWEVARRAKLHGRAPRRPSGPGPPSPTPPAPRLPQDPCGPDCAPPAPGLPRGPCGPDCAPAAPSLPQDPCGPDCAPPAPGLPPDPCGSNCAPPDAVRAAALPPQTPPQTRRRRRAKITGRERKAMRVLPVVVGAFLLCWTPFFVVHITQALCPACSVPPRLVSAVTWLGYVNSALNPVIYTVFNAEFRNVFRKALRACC

[3] = target: D(2) dopamine receptor (Homo sapiens) (UniProt P14416); assay: Displacement of [3H]spiperone from human cloned dopamine D2L receptor at 1 uM
[4] = target: T2, D(4) dopamine receptor (Homo sapiens, UniProt P21917); assay: Displacement of [3H]nemonapride from human cloned dopamine D4.2 receptor
T2 sequence (P21917 whole entry): T1 sequence (whole entry)

[5] = target: 5-hydroxytryptamine receptor 2A (Rattus norvegicus) (UniProt P14842); assay: Displacement of [3H]ketanserin from rat 5HT2A receptor at 1 uM
[6] = target: T1, D(4) dopamine receptor (Homo sapiens); assay: Antagonist activity at dopamine D4.2 receptor assessed as inhibition of dopamine-induced effect at 5 uM; type: functional
[7] = target: 5-hydroxytryptamine receptor 2A (Homo sapiens) (UniProt P28223); assay: Antagonist activity at 5HT2A assessed as inhibition of serotonin-induced effect at 5 uM; type: functional
Chain of 5-hydroxytryptamine receptor 2A (Homo sapiens) (P28223 whole entry): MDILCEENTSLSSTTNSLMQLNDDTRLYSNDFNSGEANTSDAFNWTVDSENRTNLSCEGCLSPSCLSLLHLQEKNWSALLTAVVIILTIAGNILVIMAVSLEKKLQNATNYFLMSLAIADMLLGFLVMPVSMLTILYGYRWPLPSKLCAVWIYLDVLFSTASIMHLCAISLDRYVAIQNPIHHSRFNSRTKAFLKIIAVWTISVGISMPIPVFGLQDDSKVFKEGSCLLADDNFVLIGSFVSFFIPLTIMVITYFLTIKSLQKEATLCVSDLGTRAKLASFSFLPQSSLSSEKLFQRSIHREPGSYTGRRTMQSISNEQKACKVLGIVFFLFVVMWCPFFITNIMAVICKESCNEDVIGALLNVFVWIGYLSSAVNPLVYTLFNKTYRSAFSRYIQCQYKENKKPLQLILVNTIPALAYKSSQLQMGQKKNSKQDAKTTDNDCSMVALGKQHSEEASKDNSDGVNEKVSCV

Chain of 5-hydroxytryptamine receptor 2A (P14842 whole entry): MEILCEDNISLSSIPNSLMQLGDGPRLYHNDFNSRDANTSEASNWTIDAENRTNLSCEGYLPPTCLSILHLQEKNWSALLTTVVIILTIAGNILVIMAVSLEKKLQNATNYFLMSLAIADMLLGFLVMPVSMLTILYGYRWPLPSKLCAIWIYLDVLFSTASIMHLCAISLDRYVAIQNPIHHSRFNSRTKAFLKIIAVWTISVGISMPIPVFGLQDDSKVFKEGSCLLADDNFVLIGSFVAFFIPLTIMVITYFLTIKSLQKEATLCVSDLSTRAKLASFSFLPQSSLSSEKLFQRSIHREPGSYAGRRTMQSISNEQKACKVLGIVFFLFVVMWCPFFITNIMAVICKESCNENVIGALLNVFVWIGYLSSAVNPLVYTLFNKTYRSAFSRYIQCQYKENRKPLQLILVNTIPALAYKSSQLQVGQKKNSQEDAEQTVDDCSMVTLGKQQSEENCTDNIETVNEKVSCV
Chain of 5-hydroxytryptamine receptor 2A (Rattus norvegicus) (P14842 whole entry): as above
Chain of D(2) dopamine receptor (Homo sapiens) (P14416 whole entry): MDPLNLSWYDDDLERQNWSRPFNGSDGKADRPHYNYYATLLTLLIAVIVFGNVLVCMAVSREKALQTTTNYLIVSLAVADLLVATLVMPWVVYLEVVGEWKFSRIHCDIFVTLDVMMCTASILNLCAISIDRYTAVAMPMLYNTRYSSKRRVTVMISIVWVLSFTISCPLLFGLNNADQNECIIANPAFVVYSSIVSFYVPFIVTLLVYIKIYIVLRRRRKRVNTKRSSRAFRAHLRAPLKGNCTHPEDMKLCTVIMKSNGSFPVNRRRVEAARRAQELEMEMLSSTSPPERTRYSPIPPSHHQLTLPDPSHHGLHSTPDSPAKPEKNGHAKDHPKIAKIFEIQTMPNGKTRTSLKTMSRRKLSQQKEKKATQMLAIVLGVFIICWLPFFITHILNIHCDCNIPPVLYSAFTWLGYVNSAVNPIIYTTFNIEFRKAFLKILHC

Structure (SMILES) | Ki [1] | inhibition [2] | inhibition [3] | Ki [4] | inhibition [5] | Activity [6] | Activity [7]
O=C(NC1CCN(Cc2ccncc2)CC1)c1ccc2ccccc2c1 | 695 nM | 32% | 5% |  |  |  | 
Cc1ccc(CN2CCC(NC(=O)c3cccc4ccccc34)CC2)cc1 |  |  | 13% | 69 nM | 33% | Active | 
O=C(NC1CCN(Cc2ccc([N+](=O)[O-])cc2)CC1)c1cccc2ccccc12 |  | 42% | 0% |  | 20% |  | 
COc1cccc(CN2CCC(NC(=O)c3cccc4ccccc34)CC2)c1 |  |  | 0% | 168 nM | 23% | Active | 
O=C(NC1CCN(Cc2ccccc2Cl)CC1)c1ccc2ccccc2c1 | 133 nM | 48% | 0% |  |  |  | Active
O=C(NC1CCN(Cc2c(F)c(F)c(F)c(F)c2F)CC1)c1ccc2ccccc2c1 |  | 0% | 0% |  | 4% |  | 
O=C(NC1CCN(Cc2ccc(Cl)cc2)CC1)c1ccc2ccccc2c1 | 242 nM |  | 15% | 37 nM |  | Active | Active
O=C(NC1CCN(Cc2ccccc2Cl)CC1)c1cccc2ccccc12 |  |  |  | 329 nM |  | Active | 
O=C(NC1CCN(Cc2ccc([N+](=O)[O-])cc2)CC1)c1ccc2ccccc2c1 | 278 nM |  | 0% | 181 nM |  | Active | Active
COc1ccc(CN2CCC(NC(=O)c3ccc4ccccc4c3)CC2)cc1 | 151 nM |  | 18% | 31 nM |  | Active | Active
COc1ccc(CN2CCC(NC(=O)c3cccc4ccccc34)CC2)cc1 |  |  | 3% | 223 nM |  | Active | 
Cc1ccc(CN2CCC(NC(=O)c3ccc4ccccc4c3)CC2)cc1 | 222 nM |  | 42% | 21 nM |  | Active | Active
O=C(NC1CCN(Cc2cccc(Br)c2)CC1)c1ccc2ccccc2c1 | 53 nM |  |  | 36 nM |  | Active | Active
Cc1cccc(CN2CCC(NC(=O)c3cccc4ccccc34)CC2)c1 |  |  | 11% | 77 nM | 38% | Active | 
O=C(NC1CCN(Cc2cccnc2)CC1)c1ccc2ccccc2c1 | 524 nM |  | 4% | 326 nM |  |  | 
O=C(NC1CCN(Cc2ccc(Br)cc2)CC1)c1ccc2ccccc2c1 | 223 nM |  |  | 34 nM |  | Active | Active
O=C(NC1CCN(Cc2ccc(C(F)(F)F)cc2)CC1)c1cccc2ccccc12 |  |  | 0% | 96 nM | 32% | Active | 
Cc1cccc(CN2CCC(NC(=O)c3ccc4ccccc4c3)CC2)c1 | 87 nM |  | 20% | 11 nM |  | Active | Active

Structure (SMILES) | Ki [1] | inhibition [2] | inhibition [3] | Ki [4] | inhibition [5] | Activity [6] | Activity [7]
O=C(NC1CCN(Cc2ccccc2Br)CC1)c1ccc2ccccc2c1 |  | 31% | 0% |  | 47% |  | 
O=C(NC1CCN(Cc2cccc(Cl)c2)CC1)c1ccc2ccccc2c1 | 133 nM |  | 29% | 54 nM |  | Active | Active
O=C(NC1CCN(Cc2ccc(Cl)cc2)CC1)c1cccc2ccccc12 |  |  | 0% | 43 nM | 23% | Active | 
O=C(NC1CCN(Cc2ccccn2)CC1)c1ccc2ccccc2c1 | 545 nM |  | 5% | 299 nM |  |  | 
O=C(NC1CCN(Cc2c(F)c(F)c(F)c(F)c2F)CC1)c1cccc2ccccc12 | 228 nM | 0% | 0% |  |  |  | 
O=C(NC1CCN(Cc2cccc(C(F)(F)F)c2)CC1)c1cccc2ccccc12 |  |  | 0% | 119 nM |  | Active | 
O=C(NC1CCN(Cc2cccc(Br)c2)CC1)c1cccc2ccccc12 | 462 nM |  |  | 66 nM |  | Active | Active
Cc1ccccc1CN1CCC(NC(=O)c2cccc3ccccc23)CC1 |  |  | 9% | 155 nM | 26% | Active | 
O=C(NC1CCN(Cc2ccccc2Br)CC1)c1cccc2ccccc12 |  | 35% | 8% |  |  |  | 
Cc1ccccc1CN1CCC(NC(=O)c2ccc3ccccc3c2)CC1 | 175 nM |  | 6% | 26 nM |  | Active | Active
O=C(NC1CCN(Cc2ccc(Br)cc2)CC1)c1cccc2ccccc12 |  |  | 4% | 44 nM |  | Active | 
O=C(NC1CCN(Cc2ccc(C(F)(F)F)cc2)CC1)c1ccc2ccccc2c1 |  |  | 0% | 84 nM | 36% |  | 
O=C(NC1CCN(Cc2cccc(C(F)(F)F)c2)CC1)c1ccc2ccccc2c1 |  |  | 9% | 103 nM | 15% | Active | 
O=C(NC1CCN(Cc2ccccc2)CC1)c1ccc2ccccc2c1 |  |  |  |  |  | Active | Active
COc1cccc(CN2CCC(NC(=O)c3ccc4ccccc4c3)CC2)c1 | 158 nM |  | 0% | 16 nM |  | Active | Active
O=C(NC1CCN(Cc2ccccc2)CC1)c1cccc2ccccc12 |  |  |  |  |  | Active | Active
O=C(NC1CCN(Cc2cccc(Cl)c2)CC1)c1cccc2ccccc12 |  |  | 0% | 116 nM | 49% | Active | 

From ChEMBL document CHEMBL1146384, “Synthesis and in vitro binding studies of substituted piperidine naphthamides. Part II: Influence of the substitution on the benzyl moiety on the affinity for D2L, D4.2, and 5-HT2A receptors” (Bioorg Med Chem Lett, 2007)
